In publication PMC6222802 (Molecules : A Journal of Synthetic Chemistry and Natural …, 2018):

Key:
H22 tumor bearing mice = assay: Antitumor activity and toxicity in vivo in H22 tumor bearing mice; set-up: species or system KM mice; conditions: for tumor inhibition rate: 50 mg/kg, administered for 6 days, H22 tumor bearing mice; for toxicity, organ-to-body weight ratios (organ indexes: thymus, brain, lung, heart, liver, kidney, spleen) compared with NS: 50 and 30 mg/kg (CP 50 mg/kg); for body weight change compared with NS group: even at the dose of 50 mg/kg
H22 cells [1] = assay: Cell cycle analysis by flow cytometry (PI); format: cell-based; conditions: 3 μM, 48 h; for Distribution (%) G2/M: control 12.26%; for percentage of G1-phase cells: control 15.32%; for percentage of S-phase cells: control 72.42%
Method: To determine whether the suppression of cell growth by the compounds was caused by a cell-cycle effect, we used a cell cycle analysis kit to detect the DNA content of cell nuclei.
H22 cells were treated with 7a–7e at 3 μM at 37 °C for 48 h and then cells were harvested, centrifuged, resuspended and fixed in 70% EtOH overnight at 4 °C. The fixed cells were digested by RNase A (0.25 mg·mL^−1) at 37 °C for 30 min, and stained with PI (50 μg·mL^−1) in the dark at room temperature for 30 min. The distribution of the cell cycle was analyzed by Flow Cytometer.

S180 cells [2] = test system: S180 cells
H22 cells [3] = test system: H22 cells
S180 cells [4] = assay: cells; conditions: S-180, 48 h, read-out: IC50, S180
H22 cells [5] = assay: cells; conditions: Mus musculus, H22, 48 h, read-out: IC50, H22
K562 cells = assay: cells; conditions: Homo sapiens, K562, 48 h, read-out: IC50, K562
MCF-7 cells = assay: cells; conditions: Homo sapiens, MCF7, 48 h, read-out: IC50, MCF-7
LoVo cells = assay: cells; conditions: Homo sapiens, 48 h, read-out: IC50, LoVo
L929 cells = assay: cells; conditions: Mus musculus, L929, 48 h, read-out: IC50, L929

Row | Compound | tumor inhibition rate (H22 tumor bearing mice) [%] | toxicity, organ-to-body weight ratios (organ indexes: thymus, brain, lung, heart, liver, kidney, spleen) compared with NS (H22 tumor bearing mice) | body weight change compared with NS group (H22 tumor bearing mice) | Distribution (%) G2/M (H22 cells [1]) [%] | percentage of G1-phase cells (H22 cells [1]) [%] | percentage of S-phase cells (H22 cells [1]) [%] | SI * selectivity index (SI) of S180 against L929 (S180 cells [2]) | SI ** selectivity index (SI) of H22 against L929 (H22 cells [3]) | IC50 (S180 cells [4]) [µM] | IC50 (H22 cells [5]) [µM] | IC50 (K562 cells) [µM] | IC50 (MCF-7 cells) [µM] | IC50 (LoVo cells) [µM] | IC50 (L929 cells) [µM] | kinetics of growth inhibition, S180 (S180 cells [2]) | kinetics of growth inhibition, H22 (H22 cells [3])
1 | O=P1(N(CCCl)CCCl)NCCCO1 (stereo not shown) [CP, cyclophosphamide, reference compound] | 72.22 | significantly increase the liver and spleen indexes | – | – | – | – | – | – | – | – | – | – | – | – | – | –
2 | COC(=O)CCC[C@@H]1[C@H]2CCCN3CCC[C@H](CN1P(=O)(Oc1ccc(C)cc1)N(CCCl)CCCl)[C@@H]23 (stereo partly shown) [Compound 7a] | 46.95 | induced low toxicity | did not significantly cause body weight change | 15.15 | 32.02 | 52.83 | 62.51 | 83.10 | 2.89 ± 0.23 | 2.17 ± 0.13 | 27.1 ± 2.51 | 61.2 ± 2.21 | 62.5 ± 2.32 | 181 ± 4.56 | – | –
3 | COC(=O)CCC[C@@H]1[C@H]2CCCN3CCC[C@H](CN1P(=O)(Oc1ccc(Cl)cc1)N(CCCl)CCCl)[C@@H]23 (stereo partly shown) [Compound 7c] | 54.83 | induced low toxicity | did not significantly cause body weight change | 6.30 | 51.22 | 42.48 | 80.40 | 160.80 | 2.02 ± 0.17 | 1.01 ± 0.08 | 18.1 ± 1.34 | 31.9 ± 2.45 | 33.4 ± 2.45 | 162 ± 4.12 | concentration-dependent and time-dependent | concentration-dependent and time-dependent
4 | COC(=O)CCC[C@@H]1[C@H]2CCCN3CCC[C@H](CN1P(=O)(Oc1ccc([N+](=O)[O-])cc1)N(CCCl)CCCl)[C@@H]23 (stereo partly shown) [Compound 7d] | – | – | – | 15.66 | 16.10 | 68.24 | 52.40 | 58.51 | 2.01 ± 0.14 | 1.8 ± 0.12 | 20.3 ± 2.05 | 34.6 ± 2.21 | 32.2 ± 2.21 | 105 ± 3.1 | concentration-dependent and time-dependent | concentration-dependent and time-dependent
5 | COc1cccc2c1C(=O)c1c(O)c3c(c(O)c1C2=O)C[C@@](O)(C(=O)CO)C[C@@H]3O[C@H]1C[C@H](N)[C@H](O)[C@H](C)O1 [Dox, Doxorubicin, reference compound] | – | – | – | – | – | – | – | – | 29.2 ± 2.07 | 36.5 ± 2.56 | 17.2 ± 1.78 | 0.44 ± 0.08 | 0.15 ± 0.02 | 0.23 ± 0.08 | – | –
6 | COC(=O)CCC[C@@H]1[C@H]2CCCN3CCC[C@H](CN1P(=O)(Oc1ccc(OC)cc1)N(CCCl)CCCl)[C@@H]23 (stereo partly shown) [Compound 7b] | – | – | – | 12.70 | 15.44 | 71.86 | 29.80 | 39.36 | 3.5 ± 0.35 | 2.65 ± 0.25 | 54.5 ± 2.32 | 38.9 ± 2.56 | 46.2 ± 2.32 | 104 ± 3.2 | – | –
7 | O=C1CCC[C@@H]2[C@H]3CCCN4CCC[C@H](CN12)[C@@H]34 [Compound 1, Sophoridine, reference compound] | – | – | – | – | – | – | – | – | > 100 | > 100 | > 100 | > 100 | > 100 | > 100 | – | –
8 | COC(=O)CCC[C@@H]1[C@H]2CCCN3CCC[C@H](CN1P(=O)(Oc1ccccc1)N(CCCl)CCCl)[C@@H]23 (stereo partly shown) [Compound 7e] | 47.78 | induced low toxicity | did not significantly cause body weight change | 11.75 | 17.21 | 71.04 | 37.96 | 74.89 | 3.65 ± 0.25 | 1.85 ± 0.16 | 32.7 ± 2.56 | 86.6 ± 2.67 | 70 ± 2.78 | 139 ± 3.35 | – | –
